Laboratory results as given in US7714014B2, “Targeting GLI proteins in human cancer by small molecules” (The Regents of the University of California, priority 2005, dated 2010).

Assays:
[1] = system: colon cancer cell lines SW480 and HCT116; test: Cytotoxicity and apoptosis assays; assay type: cell-based, human; conditions: 10, 30, 50, and 100 μM; data not shown
Method: (§1) Typically, the small molecule compounds of the present invention were dissolved in DMSO at a concentration of 30 mM. The small molecule compounds were then tested under cell culture conditions at different concentrations ranging from 0, 10, 30, 50, to 100 uM. To determine cell survival after treatment, the cells were incubated with the small molecule compounds in 6-well plates for about 3 days. After removal of the cell culture medium, 1-ml of 0.5% crystal violet solution (prepared in 20% ethanol and 20% methanol) was added to stain the cells for 5 min. Then the crystal violet solution was rinsed clean with tap water. Cell survival was estimated based on the density of crystal stained plates.
(§2) Apoptosis was analyzed by using an Annexin V FITC Apoptosis Detection Kit (Biosource, Camarillo, Calif.), according to the manufacturer's protocol. After treatment with different small molecule compounds at various concentrations for about 3 days, cells were harvested by trypsinization, stained and immediately analyzed by flow cytometry (FACScan; Decton Dickinson, Franklin Lake, N.J.). Early apoptotic cells with exposed phosphatidylserine but intact cell membranes will bind to Annexin V-FITC, but not propidium iodide (PI). Cells in necrotic or late apoptotic stages will be labeled with both Annexin V-FITC and PI. […]

[2] = system: H1299 and A549 cells; test: Cytotoxicity and apoptosis assays; assay type: cell-based, human; conditions: 10, 30, 50, and 100 μM; data not shown
Method: as §1, §2

[3] = system: mesothelioma cell line MS-1; test: Cytotoxicity and apoptosis assays; assay type: cell-based, human; conditions: 10, 30, 50, and 100 μM (FN1-9U effect at 100 μM)
Method: as §1, §2

[4] = system: melanoma cell line LOX; test: Cell survival assay (crystal violet); assay type: cell-based, human; conditions: 100 μM, 3 days
Method: as §1
The effect of small molecule compounds FN1-5, FN1-8, FN1-7, FN1-9U, and FN1-9S was tested using a cytotoxicity assay and the melanoma cell line LOX. LOX cells were plated in 6-well plates and incubated with 100 μM of each compound (stocks were dissolved in DMSO at 30 mM) for 3 days, as described herein. […] Live cells were stained by 0.5% crystal violet.
Cell killing was also tested using human melanoma cell line LOX and different doses of the small molecule compounds FN1-5 and FN1-8. LOX cells were plated in 6-well plates and incubated with 10, 30, and 50 μM of each compound for 3 days, as described herein.

[5] = system: human SOCS3 promoter in NSCLC cell line A549; test: SOCS3 promoter-luciferase reporter assay; assay type: cell-based; conditions: A549, 30 μM, 18-24 hours
Method: One day before transfection, cells (1×10^5) were plated in 12-well plates with growth medium without antibiotics. When cells reached 80-90% of confluence they were co-transfected using 0.5 μg of each promoter construct in pGL3Basic vector and 0.025 μg pRL-TK Vector (Promega; Madison, Wis.) containing Renilla Luciferase as an internal control for the transformation efficiency. Lipofectamine 2000™ (Invitrogen Life Technologies) was used to mediate transfection for about 6 hours. Then the medium was replaced with fresh medium containing various small molecule compounds at a concentration of 30 μM, and the resulting cells were cultured for an additional 18-24 hours and subjected to luciferase assay. Briefly, cells were lysed in a lysis buffer and Firefly and Renilla Luciferase activities in cells of each well, were measured using Dual-Luciferase Assay System (Promega) and an illuminometer. The measured luciferase activities were normalized to pRL-TK Vector activity and were given relative to the basal activity of empty pGL3-Basic Vector, which was set to unity. The data shown represent mean values (±S.D.). All measurements were performed in triplicate and repeated in at least three independent experiments. The human Wnt-2 promoter-luciferase construct, the human SOCS3 promoter-Luciferase construct and the human Gremlin promoter-luciferase construct were cloned and characterized in the laboratory of Dr. Jablons at the University of California, San Francisco (San Francisco, Calif.; He et al., Biochem Biophy Res Comm, 2003; and unpublished data). The 6GLI-TKO-luciferase construct (containing 6 repeats of consensus GLI DNA binding sequence) was kindly provided by Dr. Matthias Hebrok's laboratory at the University of California, San Francisco (San Francisco, Calif.).
As a third specificity test for the small molecule compounds of the present invention, the ability of these compounds to regulate the expression of genes that are not down-stream targets of the Gli activation was analyzed. SOCS3, an inhibitor and down-stream target gene of JAK/STAT pathway was chosen for this experiment. Expression of SOCS3 is not under control of Gli and/or Wnt activation. Furthermore, no GLI and TCF binding sites were found in the human SOCS3 promoter cloned in the laboratory of Dr. Jablons (University of California, San Francisco; data not shown). Thus, SOCS3 promoter-luciferase reporter activity was measured after the treatment of the NSCLC cell line A549 with small molecule compounds FN1-5, FN1-7, FN1-8, and FN1-9U.

[6] = system: primary cultured human mesothelioma cells; test: Cell survival assay (crystal violet); assay type: cell-based; conditions: 50 and 100 μM, 3 days
Method: Fresh cancer tissue and adjacent normal tissue from patients undergoing curative primary resection of their tumors were collected at the time of surgery (IRB approval H8714-15319-040), and immediately snap-frozen in liquid nitrogen. These tissue samples were kept at −170° C. in a liquid nitrogen freezer until further use. Primary tissue cultures were prepared as follows: Fresh cancer tissue was obtained with consent from patients undergoing resection, cut into small pieces (1-2 mm in diameter), and then digested with Collagenase A (Roche Applied Science, Indianapolis, Ind.) at room temperature for 2 hours according to manufacture's protocol. Single cells from the digestion were spun down and the cell pellets were washed twice using RPMI 1640 supplemented with 10% fetal bovine serum, penicillin (100 IU/ml) and streptomycin (100 μg/ml). Then, the cells were resuspended in the same medium and cultured in 6-well plates at 37° C. in a humid incubator with 5% CO2 until they were ready for further treatments.
as §1
Next, the effect of different small molecule compounds on primary cultured human mesothelioma cells freshly made from tissue samples was examined. The primary cultures were plated in 6-well plates as described herein and incubated with 50 and 100 μM of each compound (FN1-5, FN1-7, FN1-8, and FN3-5; stocks were dissolved in DMSO at 30 mM) for 3 days. […] (FIG. 8).

[7] = system: normal human muscle cells; test: Cell survival assay (crystal violet); assay type: cell-based; conditions: 1, 10, 30, and 50 μM, 3 days
Method: as §1
The cell killing effect of small molecule compounds FN1-8, FN1-7, and FN1-5 at different doses was examined in normal human muscle cells. […] Normal muscle cells were plated in 6-well plates and incubated with 1, 10, 30, and 50 μM of each compound for 3 days, in the same manner as described herein for similar other experiments. […] Both FN1-5 and FN1-8 seem to be specific in killing cancer cells.

Compound	cell killing effect or apoptosis [1]	cell killing effect or apoptosis [2]	cell killing effect or apoptosis [3]	cell killing effect [4]	SOCS3 promoter activity [5]	cell killing effect [6]	cell killing effect in normal cells [7]
O=C(O)CCCCNC(=O)C1C(c2ccccc2)C(c2ccccc2)=NN1c1ccccc1 (stereo not shown) [FN1-9S, 5-(1,3,4-triphenyl-4,5-dihydro-pyrazole-5-carbonyl)aminopentanoic acid]	No dramatic cell killing effect or apoptosis	no noticeable cell killing effect or apoptosis	no cell killing effect or apoptosis				
O=C(O)CCCCNC(=O)C1C(c2ccccc2)=NN(c2ccccc2)C1c1ccccc1 (stereo not shown) [FN1-9U, 5-(1,3,5-Triphenyl-4,5-dihydro-pyrazole-4-carbonyl)aminopentanoic acid]	No dramatic cell killing effect or apoptosis	no noticeable cell killing effect or apoptosis	some cell killing	Some killing	inactive		
CC(C)CC1=NN(c2ccccc2)C(CC(C)C)C1C(=O)NCCCCCO (stereo not shown) [FN3-5, N-(5-Hydroxypentyl)-1-phenyl-3,5-bis(isobutyl)-4,5-dihydro-pyrazole-4-carboxyamide]						No significant cell killing	
O=C(NCCCO)C1C(c2ccccc2)=NN(c2ccccc2)C1c1ccccc1 (stereo not shown) [FN1-7, N-(3-Hydroxypropyl)-1,3,5-triphenyl-4,5-dihydro-pyrazole-4-carboxyanide]				Some killing	inactive	No significant cell killing	No noticeable cell killing effect
